Reference: patent US10738056B2 (Aduro BioTech, Inc., priority 2017, dated 2020)
pIC50: −log10 of the molar value.

What follows are molecules tested against Human cGAS amino acids 155-522 (Homo sapiens (Human), UniProt Q8N884) (assay: cGAS biochemical activity assay (ATP remaining, Kinase-Glo Max luminescence)). Settings: human cGAS 155-522, ATP remaining (Kinase-Glo Max); read-out: cGAS IC50.
Human cGAS amino acids 155-522, sequence (Q8N884 157-522): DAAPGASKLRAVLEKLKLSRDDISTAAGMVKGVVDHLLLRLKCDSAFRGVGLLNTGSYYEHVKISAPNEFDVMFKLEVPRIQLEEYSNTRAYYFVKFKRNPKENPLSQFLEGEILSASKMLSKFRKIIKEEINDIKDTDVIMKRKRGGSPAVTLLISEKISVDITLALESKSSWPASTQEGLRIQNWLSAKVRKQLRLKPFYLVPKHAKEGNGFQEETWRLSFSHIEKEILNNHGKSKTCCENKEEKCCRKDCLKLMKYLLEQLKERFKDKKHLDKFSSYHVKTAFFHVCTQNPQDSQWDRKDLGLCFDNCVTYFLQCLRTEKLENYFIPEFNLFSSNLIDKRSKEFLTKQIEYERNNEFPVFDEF

| Structure (SMILES) | pIC50 |
| --- | --- |
| CC(=O)N1CCC(NC(=O)c2c(C)[nH]c3c(-c4ccccc4)c(C(F)(F)F)nn3c2=O)CC1 [Compound A1027, N-(1-acetylpiperidin-4-yl)-5-methyl-7-oxo-3-phenyl-2-(trifluoromethyl)-4,7-dihydropyrazolo[1,5-a]pyrimidine-6-carboxamide] | 3.60 to 4.70 |
| Cc1[nH]c2c(-c3ccccc3)c(C(F)(F)F)nn2c(=O)c1-c1cccc(Cl)c1 [Compound C1004, 6-(3-chlorophenyl)-5-methyl-3-phenyl-2-(trifluoromethyl)pyrazolo[1,5-a]pyrimidin-7(4H)-one] | 3.60 to 4.70 |
| COCC1CCCCN1c1nnc(-c2c(C)[nH]c3c(-c4ccccc4)c(C(F)(F)F)nn3c2=O)o1 (stereo not drawn) [Compound D1060, 6-(5-(2-(methoxymethyl)piperidin-1-yl)-1,3,4-oxadiazol-2-yl)-5-methyl-3-phenyl-2-(trifluoromethyl)pyrazolo[1,5-a]pyrimidin-7(4H)-one] | 3.60 to 4.70 |
| Cc1[nH]c2c(-c3ccccc3)c(C(F)(F)F)nn2c(=O)c1C(=O)Nc1ccc(S(C)(=O)=O)cn1 [Compound A1108, 5-methyl-N-(5-(methylsulfonyl)pyridin-2-yl)-7-oxo-3-phenyl-2-(trifluoromethyl)-4,7-dihydropyrazolo[1,5-a]pyrimidine-6-carboxamide] | 3.60 to 4.70 |
| COc1cccc2oc(-c3c(C)[nH]c4c(-c5c(F)cccc5F)c(C(F)(F)F)nn4c3=O)nc12 [Compound C1133, 3-(2,6-difluorophenyl)-6-(4-methoxybenzo[d]oxazol-2-yl)-5-methyl-2-(trifluoromethyl)pyrazolo[1,5-a]pyrimidin-7(4H)-one] | 3.60 to 4.70 |
| COCCNC(=O)Cc1c(C)[nH]c2c(-c3ccccc3)c(C(F)(F)F)nn2c1=O [Compound B1003, N-(2-methoxyethyl)-2-(5-methyl-7-oxo-3-phenyl-2-(trifluoromethyl)-4,7-dihydropyrazolo[1,5-a]pyrimidin-6-yl)acetamide] | < 3.60 |
| Cc1[nH]c2c(C(C)C)c(C(F)(F)F)nn2c(=O)c1Cc1ccccc1 [Compound C1268, 6-benzyl-3-isopropyl-5-methyl-2-(trifluoromethyl)pyrazolo[1,5-a]pyrimidin-7(4H)-one] | < 3.60 |
| Cc1[nH]c2c(-c3ccccc3)c(C(F)(F)F)nn2c(=O)c1-c1nnc(N2CCCC(N)C2)o1 (stereo not drawn) [Compound D1084, 6-(5-(3-aminopiperidin-1-yl)-1,3,4-oxadiazol-2-yl)-5-methyl-3-phenyl-2-(trifluoromethyl)pyrazolo[1,5-a]pyrimidin-7(4H)-one] | > 4.70 |
| Cc1[nH]c2c(-c3ccccc3)c(C(F)(F)F)nn2c(=O)c1C(=O)NC1CCCC1 [Compound A1008, N-cyclopentyl-5-methyl-7-oxo-3-phenyl-2-(trifluoromethyl)-4,7-dihydropyrazolo[1,5-a]pyrimidine-6-carboxamide] | 3.60 to 4.70 |
| COc1cccc2oc(-c3c(C)[nH]c4c(-c5ccccc5C#N)c(C(F)(F)F)nn4c3=O)nc12 [Compound C1148, 2-(6-(4-methoxybenzo[d]oxazol-2-yl)-5-methyl-7-oxo-2-(trifluoromethyl)-4,7-dihydropyrazolo[1,5-a]pyrimidin-3-yl)benzonitrile] | 3.60 to 4.70 |
| Cc1[nH]c2c(-c3ccccc3)c(C(F)(F)F)nn2c(=O)c1-c1nnc(CC2CCN(C)CC2)o1 [Compound D1065, 5-methyl-6-(5-((1-methylpiperidin-4-yl)methyl)-1,3,4-oxadiazol-2-yl)-3-phenyl-2-(trifluoromethyl)pyrazolo[1,5-a]pyrimidin-7(4H)-one] | 3.60 to 4.70 |
| CO[C@@H]1CCCCC1c1nnc(-c2c(C)[nH]c3c(-c4ccccc4)c(C(F)(F)F)nn3c2=O)o1 (stereo partly drawn) [D1046 Iso-2] | > 4.70 |
| COc1cccc2oc(-c3c(C)[nH]c4c(-c5ccccc5)c(N)nn4c3=O)nc12 [Compound C1063, 2-amino-6-(4-methoxybenzo[d]oxazol-2-yl)-5-methyl-3-phenylpyrazolo[1,5-a]pyrimidin-7(4H)-one] | < 3.60 |
| COc1cccc(NC(=O)c2c(C)[nH]c3c(-c4ccccc4)c(SC)nn3c2=O)c1 [Compound A1122, N-(3-methoxyphenyl)-5-methyl-2-(methylthio)-7-oxo-3-phenyl-4,7-dihydropyrazolo[1,5-a]pyrimidine-6-carboxamide] | 3.60 to 4.70 |
| COc1ccc(NC(=O)c2c(C)[nH]c3c(-c4ccccc4)c(C(F)(F)F)nn3c2=O)cc1 [Compound A1001, N-(4-methoxyphenyl)-5-methyl-7-oxo-3-phenyl-2-(trifluoromethyl)-4,7-dihydropyrazolo[1,5-a]pyrimidine-6-carboxamide] | 3.60 to 4.70 |
| Cc1[nH]c2c(C3CCCC3)c(C(F)(F)F)nn2c(=O)c1-c1ccccc1 [Compound C1266, 3-cyclopentyl-5-methyl-6-phenyl-2-(trifluoromethyl)pyrazolo[1,5-a]pyrimidin-7(4H)-one] | < 3.60 |
| Cc1[nH]c2c(-c3ccccc3)c(C(F)(F)F)nn2c(=O)c1-c1nnc(-c2ccccc2)o1 [Compound D1011, 5-methyl-3-phenyl-6-(5-phenyl-1,3,4-oxadiazol-2-yl)-2-(trifluoromethyl)pyrazolo[1,5-a]pyrimidin-7(4H)-one] | < 3.60 |
| Cc1[nH]c2c(-c3ccccc3)c(C(F)(F)F)nn2c(=O)c1C(=O)Nc1ccccc1N(C)C [Compound A1053, N-(2-(dimethylamino)phenyl)-5-methyl-7-oxo-3-phenyl-2-(trifluoromethyl)-4,7-dihydropyrazolo[1,5-a]pyrimidine-6-carboxamide] | 3.60 to 4.70 |
| COc1cccn2cc(-c3c(C)[nH]c4c(-c5ccccc5)c(C(F)(F)F)nn4c3=O)nc12 [Compound C1044, 6-(8-methoxyimidazo[1,2-a]pyridin-2-yl)-5-methyl-3-phenyl-2-(trifluoromethyl)pyrazolo[1,5-a]pyrimidin-7(4H)-one] | > 4.70 |
| Cc1[nH]c2c(-c3ccccc3)c(C(F)(F)F)nn2c(=O)c1-c1nnc(C2CCCC2)o1 [Compound D1003, 6-(5-cyclopentyl-1,3,4-oxadiazol-2-yl)-5-methyl-3-phenyl-2-(trifluoromethyl)pyrazolo[1,5-a]pyrimidin-7(4H)-one] | > 4.70 |
| Cc1[nH]c2c(-c3ccccc3)c(C(F)(F)F)nn2c(=O)c1-c1nnc(C2CCNCC2)o1 [Compound D1052, 5-methyl-3-phenyl-6-(5-(piperidin-4-yl)-1,3,4-oxadiazol-2-yl)-2-(trifluoromethyl)pyrazolo[1,5-a]pyrimidin-7(4H)-one] | 3.60 to 4.70 |
| COc1cccc2oc(-c3c(C)[nH]c4c(-c5ccccc5)nnn4c3=O)nc12 [Compound E1001, 6-(4-methoxybenzo[d]oxazol-2-yl)-5-methyl-3-phenyl-[1,2,3]triazolo[1,5-a]pyrimidin-7(4H)-one] | > 4.70 |
| COCC1CCCN1c1nnc(-c2c(C)[nH]c3c(-c4ccccc4)c(C(F)(F)F)nn3c2=O)o1 (stereo not drawn) [Compound D1059, 6-(5-(2-(methoxymethyl)pyrrolidin-1-yl)-1,3,4-oxadiazol-2-yl)-5-methyl-3-phenyl-2-(trifluoromethyl)pyrazolo[1,5-a]pyrimidin-7(4H)-one] | 3.60 to 4.70 |
| COC(=O)Nc1ccccc1NC(=O)c1c(C)[nH]c2c(-c3ccccc3)c(C(F)(F)F)nn2c1=O [Compound A1038, methyl (2-(5-methyl-7-oxo-3-phenyl-2-(trifluoromethyl)-4,7-dihydropyrazolo[1,5-a]pyrimidine-6-carboxamido)phenyl)carbamate] | 3.60 to 4.70 |
